Measurements published in patent US9181265B2, “Substituted 2,3-dihydro-1H-benzo[a]pyrano[2,3-c]phenazines as anti-angiogenic and anti-cancer agents” (UNIVERSITE CATHOLIQUE DE LOUVAIN, priority 2010, dated 2015).
Like-named read-outs stand apart in the source and are kept apart here. Marks after values point to notes of the source that are not given here.

Tests used:
siHa = assay: MTT test of overall cell growth, SiHa cervix cancer cells, normoxia or hypoxia; format: cell-based, human; conditions: for Selectivity: IC50 (normoxia)/IC50 (hypoxia 1% O2), if u.t.d., ratio of activity at 100 μM
Procedure: (§1) MTT tests were performed in order to rapidly, i.e. within 3 days, measure the effect of compounds of this invention on the overall cell growth. The test measured the number of metabolically active living cells that were able to transform the yellow product 3-(4,5-dimethylthiazol-2-yl)-2,5-diphenyl tetrazolium bromide (herein referred as MTT) into the blue product formazan dye by mitochondrial reduction. The amount of formazan obtained at the end of the experiment, measured by means of a spectrophotometer (Plate Reader Victor X4 Microplate reader (Perkin Elmer), is directly proportional to the number of living cells. Optical density determination thus enabled a quantitative measurement of the effect of the investigated compounds under control conditions (normoxia) as compared to the hypoxic conditions (0.1 or 1% O2) and/or untreated conditions.
(§2) Human umbilical vein endothelial cells (HUVEC) and six human cancer cell lines were used in the MTT tests. These cancer cell lines cover five histological cancer types including cervix (SiHa), breast (MCF-7 and MDA-MB231), prostate (PC3), glioma (U373), and colorectal (LoVo) cancers.
(§3) To perform the assay, cells were allowed to grow in 96-well microplates with a flat bottom following addition of an amount of 100 μl of cell suspension per well with 4,500 cells/well. Each cell line was seeded in its appropriate culture medium. HUVEC were cultured in a specific endothelial cell growth medium (ECACC, Sigma); SiHa cells in Glutamax-containing DMEM with 4.5 g/1 glucose (Invitrogen) supplemented with 10% Foetal Bovine Serum (PAA) and 1% penicillin+streptomycin mix (Invitrogen); MCF-7, MDA-MB-231, PC3, and LoVo cells in Glutamax-containing RPMI supplemented with 10% Foetal Bovine Serum (PAA) and 1% penicillin+streptomycin mix (Invitrogen) and U373 cells in Glutamax-containing DMEM (Invitrogen) with 5% Foetal Bovine Serum (PAA) and 1% penicillin+streptomycin mix (Invitrogen).
(§4) The detailed experimental procedure was the following: after a 24-hour period of incubation at 37° C., the culture medium was replaced by 100 μl of fresh medium in which the tested compound was previously dissolved, at the following concentrations: 10^−8 M, 5.10^−8, 10^−7, 5.10^−7, 10^−6, 5.10^−6, 10^−5, 5.10^−5 and 10^−[…]. Each experiment was performed in sestuplicates (6 times).
(§5) Cells were then incubated under normoxia in a Binder incubator (the O2 level corresponding to the concentration in the ambient air), or in a Ruskin hypoxia workstation under either 0.1% O2 (v/v) or 1% O2 (v/v). Under both conditions, the atmosphere was humidified and the CO2 concentration was fixed at 5 vol. %.
(§6) After 72 hours of incubation at 37° C. under normoxic or hypoxic conditions, with or without the compound to be tested, the medium was replaced by 100 μl of HBSS (without phenol red) containing MTT at a concentration of 0.5 or 1 mg/ml. The micro-wells were subsequently incubated during 3 hours and a half at 37° C. and centrifuged at 1300 rpm during 10 minutes. Medium was removed and formazan crystals formed were dissolved in 100 μl DMSO. The micro-wells were shaken for 5 minutes and read on a spectrophotometer at wavelengths of 570 nm (maximal formazan absorbance).
(§7) For each experimental condition, the mean optical density was calculated, allowing the determination of the percentage of living cells in comparison to the control.

[1] = system: Human umbilical vein endothelial cells (HUVEC); assay: MTT test of overall cell growth, endothelial cells, normoxic or hypoxic conditions; format: cell-based; conditions: for Selectivity: if u.t.d., ratio of activity at 100 μM
Procedure: as §1, §2, §3, §4, §5, §6, §7

U373 = assay: MTT test of overall cell growth, U373 glioma cells, normoxia or hypoxia; format: cell-based, human; conditions: for Selectivity: U373, IC50 (normoxia)/IC50 (hypoxia 1% O2), if u.t.d., ratio of activity at 100 μM
Procedure: as §1, §2, §3, §4, §5, §6, §7

LoVo = assay: MTT test of overall cell growth, LoVo colorectal cancer cells, normoxia or hypoxia; format: cell-based, human; conditions: for Selectivity: IC50 (normoxia)/IC50 (hypoxia 1% O2), if u.t.d., ratio of activity at 100 μM
Procedure: as §1, §2, §3, §4, §5, §6, §7

MDA-MB-231 = assay: MTT test of overall cell growth, MDA-MB-231 breast cancer cells, normoxia or hypoxia; format: cell-based, human; conditions: for Selectivity: MDA-MB-231, IC50 (normoxia)/IC50 (hypoxia 1% O2), if u.t.d., ratio of activity at 100 μM
Procedure: as §1, §2, §3, §4, §5, §6, §7

PC3 = assay: MTT test of overall cell growth, PC3 prostate cancer cells, normoxia or hypoxia; format: cell-based, human; conditions: for Selectivity: PC3, IC50 (normoxia)/IC50 (hypoxia 1% O2), if u.t.d., ratio of activity at 100 μM
Procedure: as §1, §2, §3, §4, §5, §6, §7

MCF-7 = assay: MTT test of overall cell growth, MCF-7 breast cancer cells, normoxia or hypoxia; format: cell-based, human; conditions: for Selectivity: MCF-7, IC50 (normoxia)/IC50 (hypoxia 1% O2), if u.t.d., ratio of activity at 100 μM
Procedure: as §1, §2, §3, §4, §5, §6, §7

[2] = Homo sapiens, hypoxia 1% O2, 72 h, read-out: IC50 (μM) Hypoxia 1% O2
[3] = Homo sapiens, normoxia, 72 h, read-out: IC50 (μM) Normoxia
[4] = Homo sapiens, 72 h, hypoxia 0.1% O2, 72 h, read-out: IC50 (μM) Hypoxia 0.1%
[5] = Homo sapiens, 72 h, hypoxia 1% O2, 72 h, read-out: IC50 (μM) Hypoxia 1%
[6] = Homo sapiens, 72 h, normoxia, 72 h, series compared with hypoxia 0.1%, read-out: IC50 (μM) Normoxia
[7] = Homo sapiens, 72 h, normoxia, 72 h, series compared with hypoxia 1%, read-out: IC50 (μM) Normoxia
[8] = IC50 (normoxia)/IC50 (hypoxia 0.1%)
[9] = IC50 (normoxia)/IC50 (hypoxia 1%)
[10] = Homo sapiens, U373 MG, U373, hypoxia 1% O2, 72 h, read-out: IC50 (μM) Hypoxia 1% O2
[11] = Homo sapiens, MDA-MB-231, hypoxia 1% O2, 72 h, read-out: IC50 (μM) Hypoxia 1% O2
[12] = Homo sapiens, MCF7, MCF-7, hypoxia 1% O2, 72 h, read-out: IC50 (μM) Hypoxia 1% O2
[13] = hypoxia 1% O2, 72 h, read-out: IC50 (μM) Hypoxia 1% O2
[14] = normoxia, 72 h, read-out: IC50 (μM) Normoxia

SMILES	IC50 (siHa; [2]) [µM]	Selectivity (siHa)	IC50 [1, 4] [µM]	IC50 [1, 5] [µM]	IC50 [1, 6] [µM]	IC50 [1, 7] [µM]	Selectivity [1, 8]	Selectivity [1, 9]	IC50 (U373; [10]) [µM]	Selectivity (U373)	IC50 (LoVo; [3]) [µM]	Selectivity (LoVo)	IC50 (MDA-MB-231; [11]) [µM]	Selectivity (MDA-MB-231)	Selectivity (PC3)	IC50 (MCF-7; [12]) [µM]	Selectivity (MCF-7)	further results
C[C@H]1CC[C@H]2[C@H](C1)c1c(c3ccccc3c3nc4cc(C(=O)N5CCOCC5)ccc4nc13)OC2(C)C (racemic) [Compound 12]	1.13	17.50	0.14	0.4	8.27	5.65	58	14	0.14	75.00	9.69	7.38	1.27	23.81	11.23	1.45	5.56	IC50 (siHa; [3]): 19.8 µM; IC50 (U373; Homo sapiens, U373 MG, U373, normoxia, 72 h, read-out: IC50 (μM) Normoxia): 10.6 µM; IC50 (LoVo; [2]): 1.31 µM; IC50 (MDA-MB-231; Homo sapiens, MDA-MB-231, normoxia, 72 h, read-out: IC50 (μM) Normoxia): 30.3 µM; IC50 (PC3; Homo sapiens, PC-3, PC3, hypoxia 1% O2, 72 h, read-out: IC50 (μM) Hypoxia 1% O2): 1.31 µM; IC50 (PC3; Homo sapiens, PC-3, PC3, normoxia, 72 h, read-out: IC50 (μM) Normoxia): 14.7 µM; IC50 (MCF-7; Homo sapiens, MCF7, MCF-7, normoxia, 72 h, read-out: IC50 (μM) Normoxia): 8.07 µM
COc1ccc(CNC(=O)c2ccc3nc4c5c(c6ccccc6c4nc3c2)OC(C)(C)[C@H]2CC[C@H](C)C[C@H]52)c(OC)c1 [Compound 16]	138	>1.92^b	0.09	14.4	129	42.6	1480	3	234	>1.14^b	210	<0.79^b	230	>1.16^b	–	164	>1.63^b	IC50 (μM) Normoxia (siHa; normoxia, 72 h): u.t.d.; IC50 (μM) Normoxia (U373; U373, normoxia, 72 h): u.t.d.; IC50 (μM) Hypoxia 1% O2 (LoVo; hypoxia 1% O2, 72 h): u.t.d.; IC50 (μM) Normoxia (MDA-MB-231; MDA-MB-231, normoxia, 72 h): u.t.d.; IC50 (μM) Hypoxia 1% O2 (PC3; PC3, hypoxia 1% O2, 72 h): u.t.d.; IC50 (μM) Normoxia (PC3; PC3, normoxia, 72 h): u.t.d.; IC50 (μM) Normoxia (MCF-7; MCF-7, normoxia, 72 h): u.t.d.
CC1CCC2C(C1)c1c(c3ccccc3c3nc4ccc(C(=O)NC(CO)Cc5ccccc5)cc4nc13)OC2(C)C (mixture of isomers) [Compound 17′]	–	9.50	–	–	–	–	230	16	–	8.67	–	1.64	–	5.40	1.31	–	1.37	IC50 (siHa; [13]): 10.7 µM; IC50 (siHa; [14]): 102 µM; IC50 ([1]; hypoxia 0.1% O2, 72 h, read-out: IC50 (μM) Hypoxia 0.1%): 0.07 µM; IC50 ([1]; hypoxia 1% O2, 72 h, read-out: IC50 (μM) Hypoxia 1%): 0.36 µM; IC50 ([1]; normoxia, 72 h, series compared with hypoxia 0.1%, read-out: IC50 (μM) Normoxia): 17 µM; IC50 ([1]; normoxia, 72 h, series compared with hypoxia 1%, read-out: IC50 (μM) Normoxia): 5.72 µM; IC50 (U373; U373, hypoxia 1% O2, 72 h, read-out: IC50 (μM) Hypoxia 1% O2): 1.34 µM; IC50 (U373; U373, normoxia, 72 h, read-out: IC50 (μM) Normoxia): 11.6 µM; IC50 (LoVo; [13]): 11.4 µM; IC50 (LoVo; [14]): 18.8 µM; IC50 (MDA-MB-231; MDA-MB-231, hypoxia 1% O2, 72 h, read-out: IC50 (μM) Hypoxia 1% O2): 11.1 µM; IC50 (MDA-MB-231; MDA-MB-231, normoxia, 72 h, read-out: IC50 (μM) Normoxia): 59.9 µM; IC50 (PC3; PC3, hypoxia 1% O2, 72 h, read-out: IC50 (μM) Hypoxia 1% O2): 11.6 µM; IC50 (PC3; PC3, normoxia, 72 h, read-out: IC50 (μM) Normoxia): 15.2 µM; IC50 (MCF-7; MCF-7, hypoxia 1% O2, 72 h, read-out: IC50 (μM) Hypoxia 1% O2): 12.5 µM; IC50 (MCF-7; MCF-7, normoxia, 72 h, read-out: IC50 (μM) Normoxia): 17.2 µM
